# Results: patent publication US20120108669A1, “METHOD OF TREATING SLEEP DISORDERS USING EPLIVANSERIN” (SANOFI-AVENTIS, priority 2008, published 2012)
# Tests used:
# [1] = cited from earlier work
# [2] = system: patients with chronic (primary) insomnia characterized by sleep maintenance difficulties; assay: Study LTE6217: 12-week patient-reported sleep parameters (daily sleep questionnaire, IVRS); assay type: in vivo, human; conditions: 5 mg/day, MMRM, ITT; for Quality of sleep LS Mean (SEM) / Refreshing quality of sleep LS Mean (SEM) / pr-NAW LS Mean (SEM): mean change
# Description: (§1) The Phase 3 program of development of eplivanserin in the treatment of patients with chronic (primary) insomnia characterized by sleep maintenance difficulties consisted of 3 randomized, double-blind (DB), placebo-controlled, efficacy and safety studies designed to assess the efficacy of eplivanserin on sleep maintenance either using polysomnography (PSG) recordings (6-week study EFC6220) or patient-reported outcome (12-week studies LTE6217 and LTE6262) collected daily on sleep questionnaires.
# (§2) They were all double-blind (DB), randomized, placebo-controlled studies. In all studies, treatment period was preceded by a one week, placebo run-in period, designed to check selection criteria for insomnia based on patient reported sleep parameters collected on the daily sleep questionnaires (Studies LTE6217, and LTE6262) or based on PSG recordings during two screening nights in a sleep laboratory (Study EFC6220). Treatment period was followed by a placebo run-out period of 2 weeks designed to assess the effect of abrupt treatment discontinuation.
# Studies LTE6217 and LTE6262 measured the efficacy of eplivanserin in real life conditions of use at home by collecting daily sleep parameters reported by patients through an Interactive Voice Response System (IVRS). […]
# [3] = system: patients exposed to eplivanserin; assay: Example 3: diverticulitis in pooled phase 2 and 3 trials; assay type: in vivo, human; conditions: for Incidence of Diverticulitis by sub-group: all eplivanserin doses
# Description: Hereafter are the observations made in pooled phase 2 and 3 trials with eplivanserin or pharmaceutically acceptable salts or esters thereof.
# The majority of patients were non-elderly, females, and Caucasian with a median age between 47 and 51 years across treatment groups.
# [4] = system: patients with chronic (primary) insomnia characterized by sleep maintenance difficulties; assay: Study LTE6262: 12-week patient-reported sleep parameters (daily sleep questionnaire, IVRS); assay type: in vivo, human; conditions: 5 mg/day; for Quality of sleep Difference from Placebo LS Mean / Refreshing QoS Difference from Placebo LS Mean / pr-NAW Difference from Placebo LS Mean / Quality of sleep LS Mean / Refreshing QoS LS Mean / pr-NAW LS Mean: MMRM, ITT; for Quality of sleep LS Mean / Refreshing QoS LS Mean / pr-NAW LS Mean: mean change
# Description: as §1, §2
# (§3) Studies LTE6217 and LTE6262 measured the efficacy of eplivanserin in real life conditions of use at home by collecting daily sleep parameters reported by patients through an Interactive Voice Response System (IVRS).
# In these tables, values are given as an amount of time expressed in minutes and seconds (mm:ss).
# healthy male subjects = assay: Example 2: single-dose cross-over study of sleep (EEG) and daytime functioning; assay type: in vivo, human
# Experimental: The effects of eplivanserin or pharmaceutically acceptable salts or esters thereof on sleep and daytime functioning in healthy subjects were examined.
# Double-blind, randomized, placebo (PBO)-controlled, 4-period, cross-over study with a 1-2-week washout between each period. Single oral doses of eplivanserin or pharmaceutically acceptable salts or esters thereof 1, 10 and 40 mg and PBO were given to healthy male subjects in either the evening (pm) or the morning (am; n=16). Sleep was assessed objectively using an EEG and subjectively by Leeds Sleep Evaluation Questionnaire. Next-day psychomotor function, memory and arousal were measured objectively via Critical Flicker Fusion (CFF), Choice Reaction Time, Compensatory Tracking and Sternberg memory-scanning tasks. Subjective assessment of drug activity was performed using Line Analogue Rating Scales.
# [5] = system: patients with chronic (primary) insomnia characterized by sleep maintenance difficulties; assay: Study EFC6220: 6-week polysomnography (PSG) study of sleep maintenance; assay type: in vivo, human; conditions: for PSG-NAW (number of awakenings) LS mean: p<0.0001
# Description: as §1, §2
# Study EFC6220 was designed to measure the pharmacodynamic activity of eplivanserin on sleep maintenance using PSG recordings in a sleep laboratory. Polysomnograms were recorded in standard conditions during 8 hours in bed.
# [6] = system: patients with chronic (primary) insomnia characterized by sleep maintenance difficulties; assay: Long-term studies LTE6217 and LTE6262 together: patient global impression, daytime function, residual effects; assay type: in vivo, human
# Description: as §1, §2, §3
# [7] = all Phase 2-3 studies, all doses
# [8] = single oral 1, 10 and 40 mg, morning or evening, P=0.0001 vs PBO
# [9] = 5 mg/day, in comparison with placebo, after 6 and 12 weeks
compound,measurement,setting,value
"CN(C)CCO/N=C(/C=C/c1ccc(O)cc1)c1ccccc1F [eplivanserin, (1Z, 2E)-1-(2-fluorophenyl)-3-(4-hydroxyphenyl)-prop-2-en-1-one-O-(2-dimethylaminoethyl)oxime]",half-life time,[1]; average value,50 h
same,absorption (well absorbed),[1]; in vivo,> 70%
same,Quality of sleep Difference from Placebo LS Mean,[2]; Week 6,−0.11
same,Refreshing quality of sleep Difference from Placebo LS Mean,[2]; Week 6,−0.11
same,pr-NAW Difference from Placebo LS Mean,[2]; Week 6,−0.39
same,Quality of sleep LS Mean (SEM),[2]; Week 6,−0.65 (0.02)
same,Refreshing quality of sleep LS Mean (SEM),[2]; Week 6,−0.62 (0.02)
same,pr-NAW LS Mean (SEM),[2]; Week 6,−1.16 (0.04)
same,Quality of sleep Difference from Placebo LS Mean,[2]; Week 12,−0.10
same,Refreshing quality of sleep Difference from Placebo LS Mean,[2]; Week 12,−0.09
same,pr-NAW Difference from Placebo LS Mean,[2]; Week 12,−0.33
same,Quality of sleep LS Mean (SEM),[2]; Week 12,−0.73 (0.03)
same,Refreshing quality of sleep LS Mean (SEM),[2]; Week 12,−0.70 (0.03)
same,pr-NAW LS Mean (SEM),[2]; Week 12,−1.27 (0.04)
same,final outcome of diverticulitis,[3]; 30 patients,"Recovery was reported as final outcome in all patients, except 2"
same,median time to onset of diverticulitis,[3]; 30 patients with diverticulitis,58 days
same,Incidence of Diverticulitis by sub-group,[3]; Age groups (years): <65,18/2636 (0.7%) (0.41 to 1.08)
same,Incidence of Diverticulitis by sub-group,[3]; Age groups (years): >=65,12/394 (3.0%) (1.58 to 5.26)
same,Incidence of Diverticulitis by sub-group,[3]; BMI (kg/m2): 25-30,17/1292 (1.3%) (0.77 to 2.10)
same,Incidence of Diverticulitis by sub-group,[3]; BMI (kg/m2): <25,6/1121 (0.5%) (0.20 to 1.16)
same,Incidence of Diverticulitis by sub-group,[3]; BMI (kg/m2): >=30,7/617 (1.1%) (0.46 to 2.32)
same,Incidence of Diverticulitis by sub-group,[3]; Concomitant drugs that inhibit prostaglandin synthesis: No,15/2161 (0.7%) (0.39 to 1.14)
same,Incidence of Diverticulitis by sub-group,[3]; Concomitant drugs that inhibit prostaglandin synthesis: Yes,15/869 (1.7%) (0.97 to 2.83)
same,Incidence of Diverticulitis by sub-group,[3]; Concomitant opioids: No,27/2999 (0.9%) (0.59 to 1.31)
same,Incidence of Diverticulitis by sub-group,[3]; Concomitant opioids: Yes,3/31 (9.7%) (2.04 to 25.75)
same,Incidence of Diverticulitis by sub-group,"[3]; Creatinine clearance at baseline (ml/min): Mild: [50, 80[",11/669 (1.6%) (0.82 to 2.92)
same,Incidence of Diverticulitis by sub-group,[3]; Creatinine clearance at baseline (ml/min): Moderate/Severe: <50,1/44 (2.3%) (0.06 to 12.02)
same,Incidence of Diverticulitis by sub-group,[3]; Creatinine clearance at baseline (ml/min): Normal: >=80 or Missing,18/2317 (0.8%) (0.46 to 1.23)
same,Incidence of Diverticulitis by sub-group,[3]; Gender: Female,18/1651 (1.1%) (0.65 to 1.72)
same,Incidence of Diverticulitis by sub-group,[3]; Gender: Male,12/1379 (0.9%) (0.45 to 1.52)
same,Incidence of Diverticulitis by sub-group,[3]; Medical history of constipation: No,27/2943 (0.9%) (0.61 to 1.33)
same,Incidence of Diverticulitis by sub-group,[3]; Medical history of constipation: Yes,3/87 (3.4%) (0.72 to 9.75)
same,Incidence of Diverticulitis by sub-group,[3]; Medical history of diverticular disease (includes diverticulitis): No,18/2984 (0.6%) (0.36 to 0.95)
same,Incidence of Diverticulitis by sub-group,[3]; Medical history of diverticular disease (includes diverticulitis): Yes,12/46 (26.1%) (14.27 to 41.13)
same,Incidence of Diverticulitis by sub-group,[3]; Medical history of diverticulitis: No,23/3005 (0.8%) (0.49 to 1.15)
same,Incidence of Diverticulitis by sub-group,[3]; Medical history of diverticulitis: Yes,7/25 (28.0%) (12.07 to 49.39)
same,Incidence of Diverticulitis by sub-group,[3]; Race: Asian/Oriental/Other,0/138
same,Incidence of Diverticulitis by sub-group,[3]; Race: Black,1/162 (0.6%) (0.02 to 3.39)
same,Incidence of Diverticulitis by sub-group,[3]; Race: Caucasian,29/2730 (1.1%) (0.71 to 1.52)
same,exposure adjusted incidence rate of diverticulitis,[3]; [7],3.32 patients with an event per 100 patient-years
same,patients exposed who developed diverticulitis,[3]; [7],1%
same,patients exposed who developed diverticulitis,"[3]; all Phase 2-3 studies, all doses, n/N",30/3030
same,cumulative incidence rate of diverticulitis,"[3]; at Week 24, all doses",about 1.6%
same,time of diverticulitis events after treatment initiation,[3]; clinical trials in patients with sleep disorders,two months on average
same,"duration of diverticulitis episodes, mean",[3]; from the onset of the event,23 days
same,"duration of diverticulitis episodes, median",[3]; from the onset of the event,17 days
same,total episodes of diverticulitis,[3]; in the 30 patients,39
same,non-serious cases of diverticulitis,[3]; of 30 patients,23
same,serious cases of diverticulitis,[3]; of 30 patients,7
same,episodes of diverticulitis of mild intensity,[3]; per Investigator's judgment,Three out of 39
same,episodes of diverticulitis of moderate intensity,[3]; per Investigator's judgment,26/39
same,episodes of diverticulitis of severe intensity,[3]; per Investigator's judgment,10/39
same,persistence of effect on sleep maintenance (pr-WASO),[4]; observed from Day 1,persisted up to 1 year of treatment
same,Quality of sleep Difference from Placebo LS Mean,[4]; Week 6,−0.13
same,Refreshing QoS Difference from Placebo LS Mean,[4]; Week 6,−0.13
same,pr-NAW Difference from Placebo LS Mean,[4]; Week 6,−0.34
same,Quality of sleep LS Mean,[4]; Week 6,−0.58
same,Refreshing QoS LS Mean,[4]; Week 6,−0.55
same,pr-NAW LS Mean,[4]; Week 6,−0.99
same,Quality of sleep Difference from Placebo LS Mean,[4]; Week 12,−0.14
same,Refreshing QoS Difference from Placebo LS Mean,[4]; Week 12,−0.15
same,pr-NAW Difference from Placebo LS Mean,[4]; Week 12,−0.35
same,Quality of sleep LS Mean,[4]; Week 12,−0.63
same,Refreshing QoS LS Mean,[4]; Week 12,−0.60
same,pr-NAW LS Mean,[4]; Week 12,−1.08
same,Sleep efficiency (time asleep/time in bed),healthy male subjects; P=0.0004 vs PBO,significantly improved
same,number of awakenings ≧120 s,healthy male subjects; P=0.03 vs PBO,significantly reduced
same,CFF threshold detection,healthy male subjects; at all doses,slight decrease
same,Times to sleep onset and total sleep time,healthy male subjects; in vivo,unaffected
same,treatment-emergent AEs,healthy male subjects; in vivo,No serious or severe treatment-emergent AEs were reported
same,SWS,healthy male subjects; regardless of dosage or dose timing (morning or evening),doubled
same,"next-day objective psychomotor function or memory tests, subjective ratings of 'hangover' or CNS sedation","healthy male subjects; regardless of dose, or am or pm administration",no detrimental effects
same,'deep'/slow-wave sleep (SWS) time,healthy male subjects; [8],significantly increased
same,Stage 2 (light) sleep,healthy male subjects; [8],decreased
same,sleep onset (PSG-LPS and pr-SOL),[5]; 5 mg,did not affect sleep onset
same,percentage of time spent in sleep Stages 3&4 (slow wave sleep),[5]; 5 mg/day compared with placebo,increased percentage of time
same,sleep Stage 1,[5]; 5 mg/day compared with placebo,decrease of Stage 1
same,PSG-NAW (number of awakenings) LS mean,"[5]; Week 3, 5 mg",−1.74
same,PSG-WASO (Wake after sleep onset),"[5]; Week 3 and Week 6, difference with placebo did not reach statistical significance at Week 6",decreasing PSG-WASO
same,PSG-NAW (number of awakenings) LS mean,"[5]; Week 6, 5 mg",−1.82
same,number of brief awakenings (<1 min),[5]; compared to placebo,decreased the number of brief awakenings
same,QoS (quality of sleep),[5]; in vivo,improved
same,REM (rapid eye movement) sleep,[5]; in vivo,not affected
same,SWS/WASO+Stage 1 index,[5]; in vivo,increase of SWS/WASO+Stage 1 index
same,PGI-item 1,[6]; [9],aid to sleep
same,PGI-item 3,[6]; [9],increasing duration of sleep
same,improvement of activities related to work and hobby activities,"[6]; after 12 weeks, Study LTE6262 and meta-analysis of LTE6262 and LTE6217, compared with placebo",positive effect
same,"""sleepiness in the morning"" and ""ability to concentrate""","[6]; reported by insomniac patients, compared with placebo",significantly favourable effect
same,potential for residual effects (next-day impairment),[6]; safety analyses,devoid of next-day impairment
